Like-named read-outs stand apart in the source and are kept apart here.
Tests used:
[1] = target: Recombinant human Bcl-2 protein (Homo sapiens (Human), UniProt P10415); assay: Bcl-2 TR-FRET Assay; format: binding
In short: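 TR-FRET read (337 nm excitation, 520/490 nm emission) after 1 h with 0.5 nM FITC-labeled Bak peptide and Tb-cryptate anti-6His antibody. Bcl-2 at 0.05 nM had been pre-incubated 0.5 h with compound. IC50 fitted by four-parameter logistic equation.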

[2] = target: recombinant human Bcl-2 D103Y protein (Homo sapiens (Human), UniProt P10415, D103Y); assay: Bcl-2-D103Y Biochemical Assay (TR-FRET); format: binding; conditions: for IC50: TR-FRET, FITC labeled Bak peptide; for Ratio of Bcl-2 D103Y/Bcl-2 WT: ratio of IC50; for ratio of Bcl-2 D103Y/Bcl-2 wt, compared with F91b in WO2019210828: comparison in words
In short: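 Compounds titrated against the Bcl-2 D103Y–ligand interaction; inhibition derived from the TR-FRET emission ratio 490 nm/520 nm after 337 nm excitation. Four-parameter logistic fitting gave IC50.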

[3] = tested on: recombinant human Bcl-2-G101V protein; assay: Bcl-2-G101V TR-FRET Assay; format: binding; conditions: for Ratio of Bcl-2 G101V/WT: ratio of biochemical IC50 Bcl-2 G101V / Bcl-2 WT
In short: (§1)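 IC50 values derive from four-parameter logistic fitting of percent inhibition data. That inhibition of ligand binding to Bcl-2-G101V is computed from the 490 nm/520 nm TR-FRET ratio under 337 nm excitation, over a rising compound concentration series.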

[4] = target: recombinant human Bcl-2-G101V protein (Homo sapiens (Human), UniProt P10415, G101V); assay: Bcl-2-G101V TR-FRET Assay; format: binding; conditions: Bcl-2 G101V mutant, TR-FRET; read-out: Biochemical assay (IC50, nM) Bcl-2 G101V
In short: as §1

[5] = tested on: BCL-2 G101V knock-in cell line H96 (derive from RS4;11); assay: Bcl 2-G101V Knock-In RS4;11 Cell Proliferation Assay; format: cell-based; conditions: Homo sapiens, RS4;11 Bcl-2 G101V knock-in clone H96, 48 hrs, CellTiter-GLO, read-out: Cellular proliferation assay (IC50, nM) RS4
In short: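 CellTiter-Glo luminescence after 48 h, 37 °C compound treatment (10 concentrations, maximum 1 μM or 10 μM) gave mean IC50 values. Cells were 50,000 per well of H96, a BCL2-G101V knock-in single clone derived from RS4;11 by Cas9 editing.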

[6] = tested on: RS4;11 (BCL-2 dependent acute lymphoblastic leukemia cell line); assay: RS4;11 Cell Proliferation Assay; format: cell-based; conditions: Homo sapiens, RS4-11, RS4;11 cells, read-out: Cellular proliferation assay (IC50, nM) RS4
In short: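 Viability measured via CellTiter-Glo luminescence after a 48 h, 37 °C exposure to compounds (10 points, highest 1 μM). Seeding was 50,000 RS4;11 cells per well in 10% FBS RPMI-1640; IC50 given as mean.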

[7] = Bcl-2 wild type, TR-FRET, read-out: Biochemical assay (IC50, nM) Bcl-2 WT
[8] = wild type Bcl-2, unit inferred, read-out: Bcl-2 WT

Structure (SMILES)	IC50 [1, 7]	IC50 [1, 8]	IC50 [2]	Ratio of Bcl-2 D103Y/Bcl-2 WT [2]	Ratio of Bcl-2 G101V/WT [3]	IC50 [4]	IC50 [5]	IC50 [6]	ratio of Bcl-2 D103Y/Bcl-2 wt, compared with F91b in WO2019210828 [2]	ratio of IC50 of Bcl-2 G101V/Bcl-2 wt, compared with Example F132b in WO2019210828 and ABT-199 (venetoclax) ([3]; comparison in words)
[2H]C([2H])([2H])Oc1cc(CN2CCN(C3CC4(C3)CN(c3ccc(C(=O)NS(=O)(=O)c5ccc(NC[C@H]6CC[C@](C)(O)CC6)c([N+](=O)[O-])c5)c(Oc5cnc6[nH]ccc6c5)c3)C4)[C@H](c3ccccc3C(C)C)C2)cc2ccoc12 [Example 323, 2-((1H-pyrrolo[2,3-b]pyridin-5-yl)oxy)-N-((4-((((1r,4r)-4-hydroxy-4-methylcyclohexyl)methyl)amino)-3-nitrophenyl)sulfonyl)-4-(6-((R)-2-(2-isopropylphenyl)-4-((7-(methoxy-d3)benzofuran-5-yl)methyl)piperazin-1-yl)-2-azaspiro [3.3]heptan-2-yl)benzamide]	0.22 nM	0.22 nM	0.19 nM	0.87	2.1	0.45 nM	0.42 nM	0.21 nM	–	–
COc1cc(CN2CCN(C3CC4(C3)CN(c3ccc(C(=O)NS(=O)(=O)c5ccc(NC[C@H]6CC[C@](C)(O)CC6)c([N+](=O)[O-])c5)c(Oc5cnc6[nH]cc(F)c6c5)c3)C4)[C@H](c3ccccc3C(C)C)C2)ccc1OC(C)C [Example 349, 2-((3-fluoro-1H-pyrrolo[2,3-b]pyridin-5-yl)oxy)-N-((4-((((1r,4r)-4-hydroxy-4-methylcyclohexyl)methyl)amino)-3-nitrophenyl)sulfonyl)-4-(6-((R)-4-(4-isopropoxy-3-methoxybenzyl)-2-(2-isopropylphenyl)piperazin-1-yl)-2-azaspiro[3.3]heptan-2-yl) benzamide]	0.2 nM	0.2 nM	0.17 nM	0.9	2.2	0.43 nM	0.44 nM	0.16 nM	–	–
COc1ccc(CN2CCN(C3CC4(CCN(c5ccc(C(=O)NS(=O)(=O)c6ccc(NC[C@H]7CC[C@](C)(O)CC7)c([N+](=O)[O-])c6)c(Oc6cnc7[nH]cc(Cl)c7c6)c5)CC4)C3)[C@H](c3ccccc3C(C)C)C2)cc1OC [Example 174, 2-((3-chloro-1H-pyrrolo[2,3-b]pyridin-5-yl)oxy)-4-(2-((R)-4-(3,4-dimethoxybenzyl)-2-(2-isopropylphenyl)piperazin-1-yl)-7-azaspiro[3.5]nonan-7-yl)-N-((4-((((1r,4r)-4-hydroxy-4-methylcyclohexyl)methyl)amino)-3-nitrophenyl)sulfonyl)benzamide]	0.096 nM	0.096 nM	0.14 nM	1.4	6.1	0.59 nM	0.49 nM	0.18 nM	–	–
COc1ccc(CN2CCN(C3CC4(CCN(c5ccc(C(=O)NS(=O)(=O)c6ccc(NC[C@@H]7CN(C8COC8)CCO7)c([N+](=O)[O-])c6)c(Oc6cnc7[nH]ccc7c6)c5)CC4)C3)[C@@H](c3ccccc3C(C)C)C2)cc1 (single isomer, unassigned) [Example 84, 2-((1H-pyrrolo[2,3-b]pyridin-5-yl)oxy)-4-(2-((R or S)-2-(2-isopropylphenyl)-4-(4-methoxybenzyl)piperazin-1-yl)-7-azaspiro[3.5]nonan-7-yl)-N-((3-nitro-4-((((R)-4-(oxetan-3-yl)morpholin-2-yl)methyl)amino)phenyl)sulfonyl)benzamide]	0.028 nM	0.028 nM	0.049 nM	1.8	5.2	0.15 nM	0.6 nM	0.206 nM	significantly lower	much lower
COc1ccc(CN2CCN(C3CC4(CCN(c5ccc(C(=O)NS(=O)(=O)c6ccc(NC[C@H]7CC[C@](C)(O)CC7)c([N+](=O)[O-])c6)c(Oc6cnc7[nH]ccc7c6)c5)CC4)C3)C(c3ccccc3C(C)C)C2)cc1OC (stereo partly drawn) [Example 81, 2-((1H-pyrrolo[2,3-b]pyridin-5-yl)oxy)-4-(2-(4-(3,4-dimethoxybenzyl)-2-(2-isopropylphenyl)piperazin-1-yl)-7-azaspiro[3.5]nonan-7-yl)-N-((4-((((1r,4r)-4-hydroxy-4-methylcyclohexyl)methyl)amino)-3-nitrophenyl)sulfonyl)benzamide]	0.038 nM	0.038 nM	0.084 nM	2.2	5.2	0.2 nM	0.878 nM	0.286 nM	–	–
COc1cc(CN2CCN(C3CC4(CCN(c5ccc(C(=O)NS(=O)(=O)c6ccc(NC[C@H]7CC[C@](C)(O)CC7)c([N+](=O)[O-])c6)c(Oc6cnc7[nH]ccc7c6)c5)CC4)C3)C(c3ccccc3C(C)C)C2)cc(OC)c1OC (stereo partly drawn) [Example 75, 2-((1H-pyrrolo[2,3-b]pyridin-5-yl)oxy)-N-((4-((((1r,4r)-4-hydroxy-4-methylcyclohexyl)methyl)amino)-3-nitrophenyl)sulfonyl)-4-(2-(2-(2-isopropylphenyl)-4-(3,4,5-trimethoxybenzyl)piperazin-1-yl)-7-azaspiro[3.5]nonan-7-yl) benzamide]	0.059 nM	0.059 nM	0.22 nM	3.6	4.7	0.28 nM	1.5 nM	0.35 nM	significantly lower	–
COc1ccc(CN2CCN(C3CC4(CCN(c5ccc(C(=O)NS(=O)(=O)c6ccc(NC[C@H]7CC[C@](C)(O)CC7)c([N+](=O)[O-])c6)c(Oc6cnc7[nH]cc(Cl)c7c6)c5)CC4)C3)[C@H](c3ccccc3C(C)C)C2)cc1 [Example 123, 2-((3-chloro-1H-pyrrolo[2,3-b]pyridin-5-yl)oxy)-N-((4-((((1r,4r)-4-hydroxy-4-methylcyclohexyl)methyl)amino)-3-nitrophenyl)sulfonyl)-4-(2-((R)-2-(2-isopropylphenyl)-4-(4-methoxybenzyl)piperazin-1-yl)-7-azaspiro[3.5]nonan-7-yl) benzamide]	0.54 nM	0.54 nM	0.71 nM	1.3	3.3	1.8 nM	1.1 nM	0.25 nM	–	–
CC(C)c1ccccc1C1CN(CCc2ccccc2)CCN1C1CC2(CCN(c3ccc(C(=O)NS(=O)(=O)c4ccc(NC[C@H]5CC[C@](C)(O)CC5)c([N+](=O)[O-])c4)c(Oc4cnc5[nH]ccc5c4)c3)CC2)C1 (stereo partly drawn) [Example 26, 2-((1H-pyrrolo[2,3-b]pyridin-5-yl)oxy)-N-((4-((((1r,4r)-4-hydroxy-4-methylcyclohexyl)methyl)amino)-3-nitrophenyl)sulfonyl)-4-(2-(2-(2-isopropylphenyl)-4-phenethylpiperazin-1-yl)-7-azaspiro[3.5]nonan-7-yl)benzamide]	0.11 nM	0.11 nM	0.51 nM	4.7	12.7	1.4 nM	8.48 nM	0.85 nM	–	–
COc1cc(CN2CCN(C3CC4(C3)CN(c3ccc(C(=O)NS(=O)(=O)c5ccc(NC[C@H]6CC[C@](C)(O)CC6)c([N+](=O)[O-])c5)c(Oc5cnc6[nH]cc(F)c6c5)c3)C4)[C@H](c3ccccc3C(C)C)C2)ccc1OC1CCC1 [Example 350, 4-(6-((R)-4-(4-cyclobutoxy-3-methoxybenzyl)-2-(2-isopropylphenyl)piperazin-1-yl)-2-azaspiro[3.3]heptan-2-yl)-2-((3-fluoro-1H-pyrrolo[2,3-b]pyridin-5-yl)oxy)-N-((4-((((1r,4r)-4-hydroxy-4-methylcyclohexyl)methyl)amino)-3-nitrophenyl)sulfonyl) benzamide]	0.48 nM	0.48 nM	0.65 nM	1.4	2.2	0.99 nM	0.79 nM	0.23 nM	–	–

From US20240376097A1, “BCL-2 Inhibitor” (BeiGene Ltd., priority 2020, published 2024)
